Assay results: PubChem BioAssay (NCI)
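Assay format: 96-well plates, 48-hour exposure. GI50: concentration for 50% inhibition of growth. TGI marks complete inhibition of growth.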

How the values were obtained:
Assay in all cases: NCI tumour cell line growth inhibition, 48 h
[1] = system: NCI-H23 lung
[2] = system: CCRF-CEM leukemia
[3] = system: TK-10 renal
[4] = system: HOP-92 NSCLC
[5] = system: SNB-75 CNS
[6] = system: SW-620 colon
[7] = system: OVCAR-8 ovarian
[8] = system: SNB-19 CNS
[9] = system: SF-539 CNS
[10] = system: DU-145 prostate
[11] = system: MALME-3M melanoma
[12] = system: OVCAR-4 ovarian
[13] = system: A498 renal
[14] = system: IGROV1 ovarian
[15] = system: T-47D breast
[16] = system: HCC-2998 colon
[17] = system: OVCAR-5 ovarian
[18] = system: MDA-MB-468 breast
[19] = system: SF-268 CNS
[20] = system: SR leukemia
[21] = system: NCI-H226 lung
[22] = system: LOX IMVI melanoma
[23] = system: RXF 393 renal
[24] = system: ACHN renal
[25] = system: KM12 colon
[26] = system: UO-31 renal
[27] = system: HT29 colon
[28] = system: SK-OV-3 ovarian
[29] = system: SF-295 CNS
[30] = system: PC-3 prostate
[31] = system: RPMI-8226 leukemia
[32] = system: MDA-MB-435
[33] = system: OVCAR-3 ovarian
[34] = system: HS 578T breast
[35] = system: SK-MEL-28 melanoma
[36] = system: MDA-MB-231 breast
[37] = system: A549 NSCLC
[38] = system: M14 melanoma
[39] = system: EKVX NSCLC
[40] = system: HOP-62 NSCLC
[41] = system: NCI/ADR-RES ovarian
[42] = system: BT-549 breast
[43] = system: CAKI-1 renal
[44] = system: MCF7 breast
[45] = system: 786-0 renal
[46] = system: NCI-H460 lung
[47] = system: HCT-116 colon
[48] = system: HCT-15 colon
[49] = system: SK-MEL-2 melanoma
[50] = system: UACC-257 melanoma
[51] = system: SK-MEL-5 melanoma
[52] = system: COLO 205 colon
[53] = system: HL-60(TB) leukemia
[54] = system: SN12C renal
[55] = system: UACC-62 melanoma
[56] = system: MOLT-4 leukemia
[57] = system: NCI-H522 lung
[58] = system: K-562 leukemia
[59] = system: U251 CNS

Work on `CCCCCCn1c(O)c(N=Nc2nc(-c3cc4ccccc4oc3=O)cs2)c2ccccc21` yielded a GI50 [1] of 12.2 µM, a TGI [1] of 24.6 µM and a GI50 [2] of 10.4 µM. The TGI [2] was 44.8 µM, the GI50 [3] was 19.4 µM and the TGI [3] was 33.6 µM. For the same molecule, the GI50 [4] was 11 µM, the TGI [4] was 23.9 µM and the GI50 [5] was 12 µM. The TGI [5] was 24.8 µM, the GI50 [6] was 16.6 µM and the TGI [6] was 31.3 µM. It also gave a GI50 [7] of 17.1 µM, a TGI [7] of 32.1 µM and a GI50 [8] of 15.1 µM. It also gave a TGI [8] of 28.4 µM, a GI50 [9] of 16 µM and a TGI [9] of 29.5 µM. For the same molecule, the GI50 [10] was 16.3 µM, the TGI [10] was 30.1 µM and the GI50 [11] was 16.9 µM. For the same molecule, the TGI [11] was 30.6 µM, the GI50 [12] was 14.2 µM and the TGI [12] was 27.5 µM. For the same molecule, the GI50 [13] was 19.7 µM, the TGI [13] was 33.9 µM and the GI50 [14] was 17.2 µM. It also gave a TGI [14] of 30.9 µM, a GI50 [15] of 12.7 µM and a TGI [15] of 32.5 µM. It also gave a GI50 [16] of 16.2 µM, a TGI [16] of 29.7 µM and a GI50 [17] of 17.1 µM. The TGI [17] was 30.8 µM, the GI50 [18] was 15.7 µM and the TGI [18] was 29.7 µM. It also gave a GI50 [19] of 17.3 µM, a TGI [19] of 38.6 µM and a GI50 [20] of 7.19 µM. The TGI [20] was 34.8 µM, the GI50 [21] was 14.9 µM and the TGI [21] was 28.1 µM. For the same molecule, the GI50 [22] was 15.5 µM, the TGI [22] was 28.9 µM and the GI50 [23] was 8.91 µM. For the same molecule, the TGI [23] was 21.1 µM, the GI50 [24] was 16.7 µM and the TGI [24] was 30.3 µM. The GI50 [25] was 17.9 µM, the TGI [25] was 33.8 µM and the GI50 [26] was 14.1 µM. It also gave a TGI [26] of 27.1 µM, a GI50 [27] of 11.6 µM and a TGI [27] of 24.4 µM. It also gave a GI50 [28] of 15.2 µM, a TGI [28] of 29.1 µM and a GI50 [29] of 14.4 µM. For the same molecule, the TGI [29] was 27.5 µM, the GI50 [30] was 10.6 µM and the TGI [30] was 23.5 µM. The GI50 [31] was 17.2 µM, the TGI [31] was 53.1 µM and the GI50 [32] was 17 µM. The TGI [32] was 31.2 µM, the GI50 [33] was 16.9 µM and the TGI [33] was 30.8 µM. For the same molecule, the GI50 [34] was 7.91 µM, the TGI [34] was 52.3 µM and the GI50 [35] was 13.9 µM. It also gave a TGI [35] of 26.8 µM, a GI50 [36] of 11.6 µM and a TGI [36] of 23.8 µM. For the same molecule, the GI50 [37] was 13.6 µM, the TGI [37] was 27.7 µM and the GI50 [38] was 15 µM. The TGI [38] was 28.8 µM, the GI50 [39] was 9.61 µM and the TGI [39] was 21.4 µM. The GI50 [40] was 16.2 µM, the TGI [40] was 30.3 µM and the GI50 [41] was 15.1 µM. The TGI [41] was 28.9 µM, the GI50 [42] was 15.7 µM and the TGI [42] was 29.2 µM. The GI50 [43] was 17.7 µM, the TGI [43] was 32.2 µM and the GI50 [44] was 12.1 µM. For the same molecule, the TGI [44] was 25.9 µM, the GI50 [45] was 17.5 µM and the TGI [45] was 31.4 µM. For the same molecule, the GI50 [46] was 15.1 µM, the TGI [46] was 30.1 µM and the GI50 [47] was 11.1 µM. The TGI [47] was 23.4 µM, the GI50 [48] was 15.2 µM and the TGI [48] was 28.7 µM. For the same molecule, the GI50 [49] was 18.3 µM, the TGI [49] was 32.4 µM and the GI50 [50] was 17.4 µM. The TGI [50] was 31.7 µM, the GI50 [51] was 9.02 µM and the TGI [51] was 21.1 µM. It also gave a GI50 [52] of 11 µM, a TGI [52] of 24.9 µM and a GI50 [53] of 18.8 µM. It also gave a TGI [53] of 45.1 µM, a GI50 [54] of 17.4 µM and a TGI [54] of 31.2 µM. For the same molecule, the GI50 [55] was 13.7 µM, the TGI [55] was 26.5 µM and the GI50 [56] was 15.8 µM. It also gave a TGI [56] of 42.6 µM, a GI50 [57] of 4.1 µM and a TGI [57] of 14 µM. For the same molecule, the GI50 [58] was 15.2 µM, the TGI [58] was 43.8 µM and the GI50 [59] was 15.8 µM. For the same molecule, the TGI [59] was 29.9 µM.
